Laboratory results reported in patent US10088484B2, “Isolated mucins and different microorganisms, and methods of use” (Massachusetts Institute of Technology, priority 2015, dated 2018).

Legend:
S. sanguinis [1] = assay: Dual-species competition model, S. mutans primary colonizer: S. sanguinis CFU; assay type: cell-based, Streptococcus sanguinis JFP36; conditions: for increase of live S. sanguinis cells (secondary colonizer): S. mutans primary colonizer
Description: (§1) Agar was incubated for 24-36 hours.

S. mutans [2] = assay: S. mutans growth curve, mono-species culture (Example 3); assay type: cell-based, Streptococcus mutans UA159
Description: (§2) The suspensions were vortexed with glass beads to individualize cells, then approximately 10^6 cells were inoculated into wells of a 96-well polystyrene plate. At 2-hour intervals the bottom of the wells were scraped to remove any adherent cells, mixed, and an aliquot was removed, diluted and plated on BHI agar. Agar was incubated and CFU were counted after 24-36 hours.
(§3) The growth of S. mutans and S. sanguinis in the same medium used for competition experiments was evaluated to determine if the observed increase in viable cells in the presence of MUC5B (FIGS. 17A-C and FIGS. 18A-C) was due to enhanced bacterial growth. […] Growth in PBS containing MUC5B was studied to better understand if S. mutans and S. sanguinis can utilize MUC5B as a nutrient source when other nutrients are limited.

S. sanguinis [3] = assay: S. mutans / S. sanguinis competition model, S. sanguinis survival (Example 2); assay type: cell-based, Streptococcus sanguinis
Source text: The effect of MUC5B on S. mutans and S. sanguinis competition and coexistence was examined. To examine the effect of MUC5B, a model was developed to allow sufficient competition between S. mutans and S. sanguinis (FIG. 7). The two bacteria compete when one colonizes the surface and the second bacteria is introduced after some time.
The presence of 0.3% mucins in control medium, BHI containing 1% sucrose (S Medium), enhances S. sanguinis survival when S. mutans is the primary colonizer (FIG. 8A). * statistically significant difference determined by Student's t test (p<0.05). […] When the ratios of bacteria are equal (FIG. 8C), there is less competition, and effect of MUC5B is small. When the ratio is slightly skewed (FIG. 8B), competition increases and the protective effect of MUC5B is visible. * statistically significant difference determined by Student's t test (p<0.05). The protective effect of MUC5B may increase as inter-species competition increases. […] MUC5B may play a role in establishing a healthy oral microbiome.
(§4) In FIG. 9, the biofilm is grown, then the supernatant is removed and the biofilm washed with PBS. To remove adherent cells, the bottom of the wells are scraped with a sterile pipette tip. Suspended cells are diluted, plated on agar and […] until colonies are visible.

S. sanguinis [4] = assay: Dual-species competition model, S. sanguinis primary colonizer: S. sanguinis CFU; assay type: cell-based, Streptococcus sanguinis JFP36; conditions: 4 hours of co-culture
Description: as §1

S. sanguinis [5] = assay: CFU count assay, biofilm formation and total cells, single-species model, S. sanguinis; assay type: cell-based, Streptococcus sanguinis JFP36; conditions: for reduction of S. sanguinis biofilm formation: 0.4% polymer, relative to control
Description: (§5) For all experiments, S. mutans (bacterial strain Streptococcus mutans UA159) and S. sanguinis (erythromycin-resistant Streptococcus sanguinis JFP36) were grown overnight in Brain Heart Infusion (BHI) medium (Becton, Dickinson and Company). Before inoculating an experiment the cells were pelleted, washed with half-strength BHI containing 1% (wt/vol) sucrose (Sigma-Aldrich Company), then resuspended in half-strength BHI containing 1% sucrose. Acid-washed glass beads (425-600 μm, Sigma-Aldrich Company) were added to the resuspended bacteria to break up bacterial aggregates then the culture was vortexed for ten pulses of two seconds each. […] All experiments were performed in chambered glass slides at 37° C. with 5% CO2.
(§6) Equal numbers of CFU were inoculated into chambered glass slides then incubated. After a given amount of time, the supernatant was used to gently wash the biofilm to resuspend unattached cells, then the supernatant was removed. PBS was added to the wells then the biofilm was scraped using a sterile pipette tip. The supernatant and biofilm were vortexed with glass beads to individualize cells then the suspension was diluted, plated on BHI agar and incubated for 24-36 hours. […] Statistically significant differences were determined using the Student's t test, with P<0.05 considered significant.
(§7) The effect of MUC5B on S. sanguinis and S. mutans biofilm formation in single-species models was evaluated using colony forming units to quantify surface attached cells and the total number of viable cells in the supernatant and biofilm combined. Bacteria were grown in chambered glass slides in the presence of half-strength BHI with 1% sucrose and 0.4% MUC5B. […] Half-strength BHI was used to provide consistent media conditions throughout experiments in this study. […] All comparisons of viable CFU discussed in the results are determined relative to the control with half-strength BHI and 1% sucrose.

S. mutans [6] = assay: CFU count assay, biofilm formation and total cells, single-species model, S. mutans; assay type: cell-based, Streptococcus mutans UA159; conditions: for reduction of S. mutans biofilm formation: 0.4% polymer
Description: as §5, §6, §7

S. mutans [7] = assay: Dual-species competition model, S. sanguinis primary colonizer: S. mutans CFU; assay type: cell-based, Streptococcus mutans UA159; conditions: for increase of S. mutans CFU (secondary colonizer): S. sanguinis primary colonizer
Description: (§8) For dual-species models where S. mutans was the primary colonizer, S. mutans (10^7) was inoculated and incubated for 3 hours then S. sanguinis (10^6) was inoculated. For dual-species models where S. sanguinis was the primary colonizer, S. sanguinis (10^8) was inoculated, incubated for 3 hours, then S. mutans (10^7) was inoculated. After the secondary colonizer was inoculated, the dual-species culture was incubated until the time points indicated. For experiments quantifying biofilm formation, at the end of the experiment the supernatant was used to gently wash the biofilm to resuspend unattached cells, then the supernatant was removed. PBS was added to the wells then the biofilm was scraped using a sterile pipette tip. For experiments quantifying total cells, at the end of the experiment a sterile pipette tip was used to scrape the biofilm, then the suspension of biofilm and supernatant cells was vortexed with glass beads. For both experiments, cell suspensions were diluted then plated on BHI agar containing 10 μg/ml erythromycin to select for S. sanguinis and BHI agar with 1 U/ml bacitracin to select for S. mutans. Agar was incubated for 24-36 hours. […] Statistically significant differences were determined using the Student's t test, with P<0.05 considered significant.
An in vitro competition model was used to determine the effects of MUC5B on S. mutans and S. sanguinis biofilm formation when co-cultured. In this model, the pioneering colonizer was incubated for 3 hours then the secondary colonizer was inoculated and co-cultured for 4 hours (FIG. 15). The competition model used in this study is based on previous work by Kreth et al, J. Bacteriol. 187:7193-7203 (2005). In addition, sequential inoculation allows us to study competition in models where either S. sanguinis or S. mutans is the dominant species, which is relevant to the natural environment of the oral cavity. After 4 hours of co-culture, the supernatant was removed and the number of S. mutans and S. sanguinis in the biofilm were quantified by colony forming units. This method was used to evaluate biofilm formation when S. mutans is the primary colonizer (FIG. 16A) and when S. sanguinis is the primary colonizer (FIG. 16B). All comparisons of viable CFU discussed in the results are determined relative to the control with half-strength BHI and 1% sucrose.
To evaluate the effect of MUC5B on the viability of S. mutans and S. sanguinis in a dual-species competition model, the primary colonizer was incubated for 3 hours then inoculated the secondary colonizer and evaluated the total number of viable cells for each species over several hours (FIG. 15). […] Comparisons of viable CFU discussed in the results are determined relative to the control with half-strength BHI and 1% sucrose.

S. mutans [8] = test system: S. mutans
Description: as §8, with “PBS was added to the wells then the biofilm was scraped using a sterile pipette tip.” left out, “beads.” for “beads. For both experiments, cell suspensions were diluted then plated on BHI agar containing 10 μg/ml erythromycin to select for S. sanguinis and BHI agar with 1 U/ml bacitracin to select for S. mutans. Agar was incubated for 24-36 hours.”
An in vitro competition model was used to determine the effects of MUC5B on S. mutans and S. sanguinis biofilm formation when co-cultured. […] After 4 hours of co-culture, the supernatant was removed and the number of S. mutans and S. sanguinis in the biofilm were quantified by colony forming units. […] All comparisons of viable CFU discussed in the results are determined relative to the control with half-strength BHI and 1% sucrose. […]

S. sanguinis [9] = assay: S. sanguinis growth curve, mono-species culture (Example 3); assay type: cell-based, Streptococcus sanguinis JFP36
Description: as §2, §3

S. mutans [10] = assay: S. mutans growth curve and viable cell count (Example 2); assay type: cell-based, Streptococcus mutans; conditions: 0.3% polymer in BHI with 1% sucrose
Source text: As shown in FIG. 12 and FIG. 13, S. mutans survival is unaffected by salivary mucins. […] Error bars represent SDs. […] Error bars represent SDs.

S. mutans [11] = assay: S. mutans attachment and biofilm formation on glass (Example 2); assay type: cell-based, Streptococcus mutans; conditions: 0.3% polymer in BHI with 1% sucrose, compared to BHI with 1% sucrose
Description: as §4
As shown in FIG. 10A and FIG. 10B and FIG. 11A and FIG. 11B, salivary mucins decrease S. mutans attachment and biofilm formation. […] Error bars represent SDs. […] Scale Bars 20 μm.

MUC5B: salivary mucin MUC5B purified by FPLC from pooled human submandibular saliva
increase of S. sanguinis (secondary colonizer) biofilm formation (S. sanguinis [1]; S. mutans pioneering species, 4 hours of co-culture): 313%
increase of live S. sanguinis cells (secondary colonizer) (S. sanguinis [1]; 4 hours of co-culture): 1670%
increase of live S. sanguinis cells (secondary colonizer) (S. sanguinis [1]; 5 hours of co-culture): 8700%
effect on S. mutans growth (S. mutans [2]; 0.4% polymer in half-strength BHI with 1% sucrose, time points up to 10 hours): slightly reduced or had no effect
S. mutans growth with MUC5B as nutrient source (S. mutans [2]; PBS with 0.4% MUC5B): neither bacterium can utilize MUC5B to enhance growth
S. sanguinis survival when S. mutans is the primary colonizer (S. sanguinis [3]; 0.3% mucins in BHI with 1% sucrose, S. sanguinis inoculated 3 hours after S. mutans, 4 hours incubation, p<0.05): enhances
protective effect, ratio of bacteria slightly skewed (S. sanguinis [3]; ratio slightly skewed (FIG. 8B)): visible
effect on S. sanguinis / S. mutans competition, equal ratios of bacteria (S. sanguinis [3]; ratios of bacteria equal (FIG. 8C)): small
reduction of S. sanguinis (pioneering species) biofilm formation (S. sanguinis [4]; S. sanguinis pioneering species): 68%
increase of viable S. sanguinis cells (primary colonizer) (S. sanguinis [4]; S. sanguinis primary colonizer): 826%
number of viable S. sanguinis in the biofilm and supernatant (S. sanguinis [5]; 6 and 9 hours): did not change
reduction of S. sanguinis biofilm formation (S. sanguinis [5]; 6 hours): 94%
reduction of S. sanguinis biofilm formation (S. sanguinis [5]; 9 hours): 86%
total number of viable S. mutans cells (biofilm and supernatant) (S. mutans [6]; 6 hours): decreased slightly
reduction of S. mutans biofilm formation (S. mutans [6]; 6 hours, relative to half-strength BHI with 1% sucrose): 94%
S. mutans cells in the biofilm as share of total cells (S. mutans [6]; 6 hours, with MUC5B (control without polymer 66%)): 13%
total number of S. mutans cells (S. mutans [6]; 9 hours): no significant effect
reduction of S. mutans biofilm formation (S. mutans [6]; 9 hours, relative to control): 92%
effect on S. mutans (secondary colonizer) biofilm formation (S. mutans [7]; S. sanguinis pioneering species, 4 hours of co-culture): no significant effect
increase of S. mutans CFU (secondary colonizer) (S. mutans [7]; 4 hours of co-culture): 74%
increase of S. mutans CFU (secondary colonizer) (S. mutans [7]; 5 hours of co-culture): 235%
increase of S. mutans CFU (secondary colonizer) (S. mutans [7]; 6 hours of co-culture): 568%
decrease of S. mutans (primary colonizer) biofilm formation (S. mutans [8]; 4 hours of co-culture, relative to control): 95%
effect on total viable S. mutans cells (S. mutans [8]; S. mutans primary colonizer, 5 hours of co-culture): no effect
effect on S. sanguinis growth (S. sanguinis [9]; 0.4% polymer in half-strength BHI with 1% sucrose): not significantly changed
S. sanguinis growth with MUC5B as nutrient source (S. sanguinis [9]; PBS with 0.4% MUC5B): neither bacterium can utilize MUC5B to enhance growth
growth of S. mutans (growth curve) (S. mutans [10]): does not alter the growth
number of viable S. mutans cells (bactericidal effect) (S. mutans [10]; timepoints up to 24 hours): no bactericidal effects
levels of S. mutans attachment and biofilm formation on glass (S. mutans [11]): significantly reduces
